Structures are written as SMILES. Read-outs that look alike come from different tables or passages of the source. Marks after values point to notes of the source that are not given here.

The source of these data is article PMC4097020 (Psychopharmacology, 2014).

Series [1] relates to nontransfected HEK-293 cells. The experiment in a line: IP-1 accumulation in nontransfected HEK-293 cells. The format is cell-based, human. The settings on record: (+)mefloquine 100 μM, 5-HT 1 μM, LSD 10 nM.
Series [2] concerns the target T1, recombinant human norepinephrine transporter (Homo sapiens, UniProt P23975). As to the kind of experiment: biochemical. The class given is binding.
In series [3] the target is T1, recombinant human norepinephrine transporter. The experiment in a line: cell-based.
The target in series [4] is T2, recombinant human dopamine transporter (Homo sapiens, UniProt Q01959). The experiment in a line: [125I]RTI-55 binding to HEK-hDAT cells.
T2 sequence (Q01959 whole entry): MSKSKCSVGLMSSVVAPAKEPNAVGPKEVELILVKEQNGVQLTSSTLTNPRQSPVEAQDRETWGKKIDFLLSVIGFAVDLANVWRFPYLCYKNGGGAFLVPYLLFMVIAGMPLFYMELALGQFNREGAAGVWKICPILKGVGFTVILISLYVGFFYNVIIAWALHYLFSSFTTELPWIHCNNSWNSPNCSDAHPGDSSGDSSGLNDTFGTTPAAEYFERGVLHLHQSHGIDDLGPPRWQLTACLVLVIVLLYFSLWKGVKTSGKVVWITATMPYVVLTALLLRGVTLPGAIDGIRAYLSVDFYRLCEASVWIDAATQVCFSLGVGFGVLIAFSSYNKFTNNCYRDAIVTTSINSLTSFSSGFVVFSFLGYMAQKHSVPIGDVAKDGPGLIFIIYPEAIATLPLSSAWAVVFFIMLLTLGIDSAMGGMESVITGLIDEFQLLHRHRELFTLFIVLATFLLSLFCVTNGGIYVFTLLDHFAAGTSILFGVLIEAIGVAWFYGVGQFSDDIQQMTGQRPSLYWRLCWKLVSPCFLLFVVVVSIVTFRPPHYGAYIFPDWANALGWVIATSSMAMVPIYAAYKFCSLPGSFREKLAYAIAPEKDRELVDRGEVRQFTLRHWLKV
Series [5] concerns the target T2, recombinant human dopamine transporter. The experiment in a line: [3H]dopamine uptake by HEK-hDAT cells. The format is cell-based.
Series [6] concerns the target T3, h5-HT2A receptor (Homo sapiens, UniProt P28223). The format is binding.
The target in series [7] is T3, h5-HT2A receptor. The format is binding. The source holds these as a separate data set.
The target in series [8] is T3, h5-HT2A receptor. The experiment in a line: IP-1 formation in HEK-h5-HT2A cells. The format is cell-based. Particulars: for agonist character at h5-HT2A receptor, IP-1 formation (in words): compared to 5-HT.
For series [9], the target named is T4, recombinant human D3 receptor (Homo sapiens, UniProt P35462). The experiment in a line: [3H]YM 09151-2 binding to CHOp-D3 cells.
T4 sequence (P35462 whole entry): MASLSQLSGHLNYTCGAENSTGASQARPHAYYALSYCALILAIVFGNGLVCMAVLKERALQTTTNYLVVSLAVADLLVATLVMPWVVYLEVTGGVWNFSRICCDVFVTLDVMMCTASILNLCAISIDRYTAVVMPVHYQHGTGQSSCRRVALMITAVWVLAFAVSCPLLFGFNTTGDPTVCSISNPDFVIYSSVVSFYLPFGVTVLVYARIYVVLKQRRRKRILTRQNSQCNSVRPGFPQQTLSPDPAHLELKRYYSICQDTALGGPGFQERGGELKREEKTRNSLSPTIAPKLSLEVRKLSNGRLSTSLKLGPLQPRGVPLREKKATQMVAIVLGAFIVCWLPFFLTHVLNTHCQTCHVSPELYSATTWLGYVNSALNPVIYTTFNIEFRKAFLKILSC
In series [10] the target is recombinant human D1 receptor (Homo sapiens, UniProt P21728). The experiment in a line: [3H]SCH23390 binding to LhD1 cells. The settings on record: read-out: D1 [3H]SCH23390 Ki (nM) ± SEM.
Sequence of recombinant human D1 receptor (P21728 whole entry): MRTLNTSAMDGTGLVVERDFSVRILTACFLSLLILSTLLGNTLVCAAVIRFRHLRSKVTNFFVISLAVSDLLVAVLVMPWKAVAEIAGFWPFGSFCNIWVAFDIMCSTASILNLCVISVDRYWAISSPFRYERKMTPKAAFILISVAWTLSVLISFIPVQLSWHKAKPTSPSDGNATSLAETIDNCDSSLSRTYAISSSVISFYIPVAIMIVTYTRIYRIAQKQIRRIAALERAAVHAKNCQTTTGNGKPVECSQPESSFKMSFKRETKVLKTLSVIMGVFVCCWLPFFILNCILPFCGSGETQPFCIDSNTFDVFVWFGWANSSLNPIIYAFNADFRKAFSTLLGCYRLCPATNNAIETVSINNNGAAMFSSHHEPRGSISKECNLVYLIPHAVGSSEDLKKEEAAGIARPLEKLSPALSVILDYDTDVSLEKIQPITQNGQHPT
In series [11] the target is T4, recombinant human D3 receptor. Particulars: for agonist activity at hD3 receptor, mitogenesis (in words): compared to quinpirole.
The target of series [12] is T5, recombinant human D2 receptor (Homo sapiens, UniProt P14416). As to the kind of experiment: cell-based. The format is cell-based.
T5 sequence (P14416 whole entry): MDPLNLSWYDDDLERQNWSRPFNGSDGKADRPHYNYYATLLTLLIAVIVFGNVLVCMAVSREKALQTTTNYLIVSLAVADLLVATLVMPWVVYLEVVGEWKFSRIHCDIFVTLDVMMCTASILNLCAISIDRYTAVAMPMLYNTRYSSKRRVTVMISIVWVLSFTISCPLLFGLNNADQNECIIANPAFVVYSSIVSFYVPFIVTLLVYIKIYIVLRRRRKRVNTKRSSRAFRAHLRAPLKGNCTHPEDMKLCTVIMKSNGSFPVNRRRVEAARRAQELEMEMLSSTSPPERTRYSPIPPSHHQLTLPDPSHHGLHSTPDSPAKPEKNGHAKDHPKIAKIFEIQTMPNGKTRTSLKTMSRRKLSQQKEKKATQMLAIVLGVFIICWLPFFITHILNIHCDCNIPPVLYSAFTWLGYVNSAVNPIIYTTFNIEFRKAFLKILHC
The target of series [13] is T6, human D4.4 receptor (Homo sapiens, UniProt P21917).
T6 sequence (P21917 1-419): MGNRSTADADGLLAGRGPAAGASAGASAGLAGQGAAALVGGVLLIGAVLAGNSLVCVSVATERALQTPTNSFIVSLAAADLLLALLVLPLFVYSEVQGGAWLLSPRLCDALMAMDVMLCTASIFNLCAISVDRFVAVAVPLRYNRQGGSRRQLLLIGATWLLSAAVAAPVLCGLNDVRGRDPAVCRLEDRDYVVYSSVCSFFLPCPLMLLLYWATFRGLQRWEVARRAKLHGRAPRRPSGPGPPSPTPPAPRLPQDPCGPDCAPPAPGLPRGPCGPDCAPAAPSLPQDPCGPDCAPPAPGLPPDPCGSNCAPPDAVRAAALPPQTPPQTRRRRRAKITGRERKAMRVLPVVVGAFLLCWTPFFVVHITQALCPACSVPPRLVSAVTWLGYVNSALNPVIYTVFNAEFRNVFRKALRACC
The experiment in a line: biochemical. The format is binding.

Series [14] deals with T5, recombinant human D2 receptor. The experiment in a line: biochemical. The format is binding.
The target of series [15] is T7, h5-HT2C receptor (Homo sapiens, UniProt P28335).
T7 sequence (P28335 33-458): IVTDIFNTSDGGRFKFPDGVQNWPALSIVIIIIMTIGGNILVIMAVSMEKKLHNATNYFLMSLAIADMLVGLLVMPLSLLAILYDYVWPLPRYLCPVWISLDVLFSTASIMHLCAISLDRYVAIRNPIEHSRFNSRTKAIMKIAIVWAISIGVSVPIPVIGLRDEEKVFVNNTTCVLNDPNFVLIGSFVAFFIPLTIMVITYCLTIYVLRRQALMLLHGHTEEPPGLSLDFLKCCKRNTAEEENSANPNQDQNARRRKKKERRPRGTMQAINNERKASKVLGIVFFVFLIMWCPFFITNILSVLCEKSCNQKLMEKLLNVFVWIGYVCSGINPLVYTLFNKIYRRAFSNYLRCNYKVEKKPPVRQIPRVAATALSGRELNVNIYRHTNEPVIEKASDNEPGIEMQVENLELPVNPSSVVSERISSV
As to the kind of experiment: cell-based.

The target in series [16] is T8, recombinant human 5-HT1A receptor (Homo sapiens, UniProt P08908).
T8 sequence (P08908 1-422): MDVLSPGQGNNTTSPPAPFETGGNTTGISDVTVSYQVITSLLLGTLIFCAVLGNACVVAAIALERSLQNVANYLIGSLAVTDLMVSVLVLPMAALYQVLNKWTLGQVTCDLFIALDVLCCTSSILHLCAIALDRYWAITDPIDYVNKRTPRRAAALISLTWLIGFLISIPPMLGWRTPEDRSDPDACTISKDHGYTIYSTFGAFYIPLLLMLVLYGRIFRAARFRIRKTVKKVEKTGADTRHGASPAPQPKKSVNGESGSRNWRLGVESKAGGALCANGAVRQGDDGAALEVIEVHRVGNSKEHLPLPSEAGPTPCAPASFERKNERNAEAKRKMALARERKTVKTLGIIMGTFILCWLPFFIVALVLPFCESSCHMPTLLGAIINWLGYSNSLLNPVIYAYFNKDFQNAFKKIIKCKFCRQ
The experiment in a line: [3H]8-OH-DPAT binding to HEK-h5-HT1A cell membranes.

The target in series [17] is T9, recombinant human 5-HT2C receptor (Homo sapiens, UniProt P28335).
T9 sequence (P28335 33-458): T7 sequence (P28335 33-458)
The experiment in a line: biochemical. The class given is binding.

Series [18] has as its target recombinant human 5-HT2A receptor (Homo sapiens, UniProt P28223). As to the kind of experiment: [125I]DOI binding to HEK-h5-HT2A cell membranes.
For series [19] the following is noted: varies by preparation, ref Wiedekam et al., 1998, cited from earlier work.
For series [20] the following is noted: prophylactic use; from 8.7 to 14 mg/kg with free/whole brain ratio […].
The mark [21] stands for this setting: read-out: h5-HT2C [125I]DOI Ki (nM) ± SEM, HEK-h5-HT2C membranes.
The mark [22] stands for this setting: read-out: D4.4 [3H]YM 09151-2 Ki, in μM.
Setting [23] is: read-out: D2 [3H]YM 09151-2 Ki, in μM.

T3 sequence (P28223 whole entry): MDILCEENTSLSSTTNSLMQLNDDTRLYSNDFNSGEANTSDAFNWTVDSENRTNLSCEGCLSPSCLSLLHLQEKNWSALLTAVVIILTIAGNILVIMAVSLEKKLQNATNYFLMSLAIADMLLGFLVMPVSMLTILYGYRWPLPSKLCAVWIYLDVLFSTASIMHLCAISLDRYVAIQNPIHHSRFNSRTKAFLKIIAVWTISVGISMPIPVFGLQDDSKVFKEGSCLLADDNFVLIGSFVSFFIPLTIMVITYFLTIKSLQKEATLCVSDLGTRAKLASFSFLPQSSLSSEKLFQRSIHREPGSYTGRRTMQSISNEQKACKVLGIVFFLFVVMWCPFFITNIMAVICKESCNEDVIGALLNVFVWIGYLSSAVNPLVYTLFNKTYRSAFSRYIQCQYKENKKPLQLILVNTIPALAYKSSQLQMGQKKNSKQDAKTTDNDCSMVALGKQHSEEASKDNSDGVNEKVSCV
T1 sequence (P23975 whole entry): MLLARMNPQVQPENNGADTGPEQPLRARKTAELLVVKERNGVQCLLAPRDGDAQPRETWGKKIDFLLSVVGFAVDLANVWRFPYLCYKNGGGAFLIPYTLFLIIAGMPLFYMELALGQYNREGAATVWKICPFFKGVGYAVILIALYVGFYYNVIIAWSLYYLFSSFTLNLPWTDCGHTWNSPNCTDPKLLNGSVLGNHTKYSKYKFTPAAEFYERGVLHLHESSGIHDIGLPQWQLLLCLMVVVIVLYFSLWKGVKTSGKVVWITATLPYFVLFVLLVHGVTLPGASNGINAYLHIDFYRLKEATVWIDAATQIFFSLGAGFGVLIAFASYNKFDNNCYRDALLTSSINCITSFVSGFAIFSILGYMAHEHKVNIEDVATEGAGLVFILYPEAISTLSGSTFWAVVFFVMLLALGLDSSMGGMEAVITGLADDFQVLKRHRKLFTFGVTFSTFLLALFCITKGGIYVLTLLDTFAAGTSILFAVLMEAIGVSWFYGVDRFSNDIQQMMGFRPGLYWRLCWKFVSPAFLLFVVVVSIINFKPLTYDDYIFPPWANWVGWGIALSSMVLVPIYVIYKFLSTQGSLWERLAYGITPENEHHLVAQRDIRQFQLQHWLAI
Sequence of recombinant human 5-HT2A receptor (P28223 whole entry): as the sequence (P28223 whole entry) above

For `NCCc1c[nH]c2ccc(O)cc12` [5-HT, serotonin], the “effect on IP-1 accumulation in nontransfected cells (in words)” value (from here on “effect on IP-1 accumulation”) in series [1] was “no effect”.
On to `C=C[C@H]1C[N@@]2CC[C@H]1C[C@H]2[C@H](O)c1ccnc2ccc(OC)cc12` [Quinine, (R)-(6-Methoxyquinolin-4-yl)((2S,4S,8R)-8-vinylquinuclidin-2-yl)methanol], for which the Ki in series [2] is greater than 5500 nM; in [4], greater than 8.3 µM. Moreover, the IC50 in series [3] and in [5] was greater than 10 µM each time.
In series [6], `CN(C)CCc1c[nH]c2ccccc12` [DMT, N,N-dimethyltryptamine] showed a Ki of 0.053 ± 0.01 µM. The compound further showed a Ki in [7] of 0.175 ± 0.042 µM. Also, in series [8], it took 0.227 ± 0.064 µM to reach a half-maximal effect (EC50) and the “agonist character at h5-HT2A receptor, IP-1 formation (in words)” value (from here on “agonist character at h5-HT2A receptor”) is “partial agonist”.
Take `CCN(CC)C(=O)[C@@H]1C=C2c3cccc4[nH]cc(c34)C[C@H]2N(C)C1` [LSD, lysergic acid diethylamide]: the Ki in [9] (read-out: D3 [3H]YM 09151-2 Ki (nM) ± SEM) came out at 27.1 ± 1.3 nM; in series [2] (read-out: Norepinephrine transporter, inhibition of [125I]RTI-55 binding Ki (nM) ± SEM), 5600 nM; in series [10], 273 ± 89 nM; in [13] (read-out: D4.4 [3H]YM 09151-2 Ki (nM) ± SEM), 330 ± 120 nM; in series [14] (read-out: D2 [3H]YM 09151-2 Ki (nM) ± SEM), 38.8 ± 1.8 nM. Moreover, the “agonist activity at hD3 receptor, mitogenesis (in words)” value in series [11] was “full agonist”. In series [11] (normalized to the maximal stimulation by quinpirole), the “D3 mitogenesis % stimulation” value came out at 104.4 ± 6.1%. Also, the EC50 in series [11] (read-out: D3 mitogenesis EC50 (nM) ± SEM (n), agonist mode, NC: the data did not converge) was determined as 48 ± 14 nM; in series [12] (read-out: D2 mitogenesis EC50 (nM) ± SEM (n)), 18.1 nM. The “D2 mitogenesis % stimulation” value in series [12] came to 47.9 ± 6.2%. Also, in series [12], the “agonist activity at hD2 receptor, mitogenesis (in words)” value is reported as “partial agonist”. Moreover, the “agonist character at h5-HT2A receptor” value in series [8] is “full agonists”. Moreover, the “effect on IP-1 accumulation” value in [1] is reported as “no effect”.
In the case of `Cc1cc2c(cc1Cl)N(C(=O)Nc1ccc(Oc3cccnc3C)nc1)CC2` [SB242087], in series [15], the IC50 amounted to 0.000167 ± 6.1e-05 µM. Besides, the “h5-HT2C IP1 formation % inhibition” value in [15] worked out at 93.7 ± 5.5%. Besides, the values for the Ki in [16], in series [17] and in series [18] were greater than 9.3 µM, 11.4 ± 4 nM and 0.12 ± 0.032 µM, respectively.
For `CC(C)(C)[C@]1(O)CCN2C[C@H]3c4ccccc4CCc4cccc(c43)[C@@H]2C1` [Butaclamol], the inhibition at 0.03 µM in series [12] (read-out: D2 mitogenesis % inhibition) is 98.1 ± 1.9%.
Turning to `CN1CCc2cc(Cl)c(O)cc2C(c2ccccc2)C1` (centres unmarked) [SCH23390, 7-chloro-3-methyl-1-phenyl-1,2,4,5-tetrahydro-3-benzazepin-8-ol], the Ki in [13] turned out to be 9700 ± 1100 nM; in series [14], 887 ± 17 nM.
In the case of `C[C@H](N)Cn1ccc2cc(F)c(Cl)cc21` [Ro60-0175], the Ki in series [17] (setting [21]) was determined as 7.3 ± 1.6 nM.
In the case of `COc1ccccc1N1CCN(CCN(C(=O)C2CCCCC2)c2ccccn2)CC1` [WAY 100635], the inhibition constant (Ki) in [17] (setting [21]) turned out to be 3000 nM.
On to `OC(c1cc(C(F)(F)F)nc2c(C(F)(F)F)cccc12)C1CCCCN1` (stereo not drawn) [mefloquine, [(R*, S*)-2,8-bis(trifluoromethyl)quinolin-4-yl]-(2-piperidyl)methanol], for which the values for the Cmax in series [19] (conversion of 1018 μg/L) and in series [19] were roughly 2.6 µM and 1.018 µg/mL, respectively. For the same compound, in series [20], the “free mefloquine in brain, translated from brain levels” value was in the range of 100 to 135 nM. The “increase of IP-1 above basal activity in transfected cells” value in series [8] (HEK-h5-HT2A and HEK-h5-HT2C transfected cells together, 100 μM (+)mefloquine, Fig 2c) was 3–5 fold.
Turning to `Oc1cc2c(cc1O)C(c1ccccc1)CNCC2` (centres unmarked) [SKF 38393, 1-phenyl-2,3,4,5-tetrahydro-1H-3-benzazepine-7,8-diol], the Ki was 4300 ± 1800 nM in [9] and 28000 ± 13000 nM in [13].
Turning to `OC(c1cc(C(F)(F)F)nc2c(C(F)(F)F)cccc12)C1CCCCN1` (single isomer, unassigned; (-)) [(−)-Mefloquine], the inhibition constant (Ki) in series [13] (setting [22]) and in series [14] (setting [23]) was greater than 10000 nM each time.
`CCN(CC)CCCC(C)Nc1ccnc2cc(Cl)ccc12` (racemic) [Chloroquine, (RS)-N′-(7-chloroquinolin-4-yl)-N, N-diethyl-pentane-1,4-diamine]: in series [13], the Ki was greater than 10000 nM.
As to `O[C@H](c1cc(C(F)(F)F)nc2c(C(F)(F)F)cccc12)[C@@H]1CCCCN1` [(+)-Mefloquine], the “antagonist activity at D3 receptor, mitogenesis (in words)” value in [11] (against quinpirole) is “fully antagonized”. Also, the “D3 mitogenesis % inhibition” value in [11] (antagonism of quinpirole (30 nM)-stimulated mitogenesis) is 97.3 ± 2.7%. The “agonist activity at hD3 receptor, mitogenesis (in words)” value in [11] is “no agonist activity”. In series [12] (against quinpirole), the “antagonist activity at D2 receptor, mitogenesis (in words)” value was “no antagonist activity”. For the same compound, in series [12] (compared to quinpirole), the “agonist activity at hD2 receptor, mitogenesis (in words)” value was “no agonist activity”. Moreover, the Ki in series [13] (setting [22]) and in [14] (setting [23]) was greater than 10000 nM each time. Further, the “effect on IP-1 accumulation” value in series [1] is on record as “no effect”.
Turning to `COc1cc(CC(C)N)c(OC)cc1C` (centres unmarked) [DOM, 2,5-dimethoxy-4-methylamphetamine], the Ki in series [6] was found to be 0.00206 ± 0.00052 µM; in series [16], 14.2 µM; in [7] it was 0.0137 ± 0.006 µM; in series [18], 0.0043 ± 0.0012 µM. Moreover, the “Ratio ketanserin/DOI Ki” value in series [7] (h5-HT2A, Ki [3H]ketanserin over Ki [125I]DOI) was 6.65 ^**. Also, a half-maximal response in [8] (EC50) required 0.0247 ± 0.0085 µM. Further, the “agonist character at h5-HT2A receptor” value in series [8] is given as “full agonists”.

In general, Ki refers to a measure of affinity in units of concentration, obtained from inhibition or displacement. Broadly, the IC50 is the concentration that inhibits the measured activity by half. A word on the EC50: it is the concentration needed to bring the measured effect to its halfway point. By inhibition is commonly meant the percentage by which the read-out fell short of the control. Usually Cmax stands for the peak of the concentration-time curve.
